Results published in US20230072421A1, “TARGETED RADIOPHARMACEUTICALS FOR THE DIAGNOSIS AND TREATMENT OF PROSTATE CANCER” (Bayer AS, priority 2019, published 2023).

Tests used:
VCaP cells = assay: Cell proliferation assay (CellTiter-Glo, 5-day exposure), VCaP; type: cell-based; settings: 4000 cells/well, Th-227 labelled at 375 kBq/nmol, mean of 1 to 6 experiments
Summary of the method: (§1)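 CellTiter-Glo luminescence, day 0 (sister plates) vs day 5 of exposure to Th-227-labelled PSMA ligands. Seeding: VCaP 4000 cells/well; 22Rv1, C4-2, LNCaP 1000 cells/well; overnight 37 °C, 5% CO2 before treatment.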

[1] = test system: LNCaP human prostate cancer cells; assay: LNCaP xenograft efficacy study (T/C tumor area); type: in vivo, SCID mice
Summary of the method: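 SCID mice with testosterone pellet bearing s.c. flank LNCaP xenografts (5×10^6 cells in Matrigel) were treated i.v. with a defined radioactive dose once tumors reached 35-50 mm^2 (n=10/group). Tumor area (caliper, longest diameter × perpendicular) measured 2-3× weekly; T/C ratio calculated from tumor areas when vehicle group closed.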

C4-2 cells = assay: Cell proliferation assay (CellTiter-Glo, 5-day exposure), C4-2; type: cell-based; settings: C4-2, 1000 cells/well, Th-227 labelled at 375 kBq/nmol, mean of 1 to 6 experiments
Summary of the method: as §1

22Rv1 cells = assay: Cell proliferation assay (CellTiter-Glo, 5-day exposure), 22Rv1; type: cell-based; settings: 22Rv1, 1000 cells/well, Th-227 labelled at 375 kBq/nmol, mean of 1 to 6 experiments
Summary of the method: as §1

[2] = target: T1, PSMA-expressing LNCaP cells (Homo sapiens, UniProt Q04609); assay: Internalization assay (membrane bound and internalized Th-227); type: cell-based; settings: 10 nM radiolabeled compound, Th-227 at 375 kBq/nmol, triplicates; for Internalized in LNCaP fmol/10^6 cells 30 min / Membrane bound in LNCaP fmol/10^6 cells 30 min: 30 min incubation; for Internalized in LNCaP fmol/10^6 cells 2 h / Membrane bound in LNCaP fmol/10^6 cells 2 h: 2 h incubation
T1 construct: PSMA-expressing LNCaP cells; endogenous in cells; host or cells: LNCaP
Procedure: For internalization assays 24 well plates (#3526, Corning) were coated with 200 μl Poly-L-Lysine (0.1 mg/ml, #3438-100-01, Fa. Cultrex) per well for 2 h at 37° C. […] Cells were incubated at 37° C. and 5% CO2 over night. On the following day 400 μl of the media were removed and a total of 200 μl growth medium added supplemented with PSMA-SMOLs labeled with Th-227 at 375 kBq/nmol in triplicates. Radiochemical purity of the labeling was analyzed by instant thin layer chromatography and found to be above 70% for all compounds used. The final concentration of radiolabeled SMOLs was in the test wells was 10 nM. Cells were incubated for 30 min or 2 h. After the incubation time supernatants were taken off and cells washed with PBS. Thereafter cells were washed twice with 0.2 ml 50 mM Glycine-HCl buffer (#55097, Sigma Aldrich) and once with PBS and the washing solutions combined in counting vials (#TK75-018, Fa. Corning) and subjected to gamma counting (1470 Wizard automatic gamma counter, Wallac). The resulting counts were attributed to membrane bound radioactivity. Cells were then lysed with 500 μl 0.3N NaOH (#181691.1211, Fa. PanReac AppliChem ITW Reagents) followed by another wash with 500 μl PBS. The NaOH lysate as well as the final wash were combined in vials and subjected to gamma counting as described above. Measured radioactivity was attributed to internalized fraction. Results were calculated as fmol of Th-227 per/10^cells in the membrane bound and internalized fractions from triplicate values.

LNCaP cells = assay: Cell proliferation assay (CellTiter-Glo, 5-day exposure), LNCaP; type: cell-based, human; settings: LNCaP, 1000 cells/well; Th-227 labelled at 375 kBq/nmol; 5-day exposure; mean of 1 to 6 experiments
Summary of the method: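 Th-227-labelled PSMA ligands (375 kBq/nmol) serially diluted in triplicate on 22Rv1, C4-2, LNCaP (1000 cells/well) and VCaP (4000 cells/well) seeded overnight at 37 °C. Viability by CellTiter-Glo luminescence at treatment start (sister plates) and after 5-day exposure; dose-response curves fitted.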

[3] = test system: VCap, C4-2, 22Rv1 and LnCap cells; assay: Cell proliferation assay, summary statements over several cell lines; type: cell-based
Procedure: Inhibition of cell proliferation of Thorium-227 labeled PMSA SMOL ligands was tested different prostate cancer cell lines, namely 22Rv1, VCaP, C4-2 (all from ATCC, Manassas, Va., USA) and LNCaP (DMSZ, Braunschweig). Cells were seeded using the following conditions in 384 well plates (Corning) in 30 μl of growth media at 4000 cells/well for VCaP cells and 1000 cells/well for 22Rv1, C4-2 and LNCaP cells.
Cells were cultivated an incubator at 37° C. and 5% C02 over night. […] In sister plates cell viability at treatment start (d=0) was determined using CellTiter-Glo® assay (CTG, Promega, Madison, Wis., USA), by adding 30 μl per well CTG solution, incubation for 10 min and reading of Luminescence in a PheraStarFSX instrument (BMG Labtech). After a 5-day exposure in the presenced of test compounds, cell viability of treated or untreated control cells was determined again using CellTiter-Glo® assay (Promega, Madison, Wis., USA). […] The DRC software is a Biobook Spreadsheet that was developed by Bayer AG and Bayer Business Services on the IDBS E-Workbook Suite platform (IDBS: ID Business Solutions Ltd., Guildford, UK).

[4] = Example IV, day 36 after start of therapy, once 1 MBq/kg
[5] = Example V, day 27 after start of therapy, once 750 kBq/kg

T1 sequence (Q04609 whole entry): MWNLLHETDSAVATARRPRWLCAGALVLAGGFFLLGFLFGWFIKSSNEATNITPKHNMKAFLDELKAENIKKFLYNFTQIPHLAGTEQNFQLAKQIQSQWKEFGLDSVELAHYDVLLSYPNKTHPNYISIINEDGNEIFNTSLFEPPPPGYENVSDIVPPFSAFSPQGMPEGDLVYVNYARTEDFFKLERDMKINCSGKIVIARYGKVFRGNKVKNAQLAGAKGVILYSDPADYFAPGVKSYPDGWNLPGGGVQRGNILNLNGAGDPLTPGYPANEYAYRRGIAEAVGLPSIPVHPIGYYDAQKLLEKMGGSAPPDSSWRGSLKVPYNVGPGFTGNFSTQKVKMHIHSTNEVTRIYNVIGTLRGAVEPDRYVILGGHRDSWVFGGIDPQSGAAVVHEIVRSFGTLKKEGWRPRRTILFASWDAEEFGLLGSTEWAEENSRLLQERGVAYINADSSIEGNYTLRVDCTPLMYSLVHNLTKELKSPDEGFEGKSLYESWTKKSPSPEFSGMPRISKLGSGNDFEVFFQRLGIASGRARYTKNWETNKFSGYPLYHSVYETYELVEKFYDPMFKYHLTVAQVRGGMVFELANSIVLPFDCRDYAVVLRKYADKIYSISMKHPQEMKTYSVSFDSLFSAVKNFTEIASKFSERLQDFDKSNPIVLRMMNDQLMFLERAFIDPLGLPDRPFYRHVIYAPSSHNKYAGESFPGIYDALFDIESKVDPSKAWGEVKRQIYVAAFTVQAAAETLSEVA

| SMILES | Proliferation assay on cancer cell lines by TTCs Default Pivot #3 IC50 [kBq/mL] VCap 4000cells 375kBq/nmol (mean) (VCaP cells) | T/Carea [1, 4] | T/Carea [1, 5] | Proliferation assay on cancer cell lines by TTCs Default Pivot #3 IC50 [kBq/mL] C4-2 1000cells 375kBq/nmol (mean) (C4-2 cells) | Proliferation assay on cancer cell lines by TTCs Default Pivot #3 IC50 [kBq/mL] 22Rv1 1000cells 375kBq/nmol (mean) (22Rv1 cells) | Internalized in LNCaP fmol/10^6 cells 30 min [2] | Membrane bound in LNCaP fmol/10^6 cells 30 min [2] | Internalized in LNCaP fmol/10^6 cells 2 h [2] | Membrane bound in LNCaP fmol/10^6 cells 2 h [2] | Proliferation assay on cancer cell lines by TTCs Default Pivot #3 IC50 [kBq/mL] LnCap 1000cells 375kBq/nmol (mean) (LNCaP cells) | antiproliferative activity on VCap, C4-2, 22Rv1 and LnCap cells (in words) ([3]; 227Th-labelled compounds bearing the HOPO chelator Example A) | antiproliferative activity on VCap and C4-2 cells (in words) ([3]; 227Th-labelled compounds, in comparison to 227Th-labelled examples 1-C monomer, dimer, trimer and tetramer) | T/Carea ([1]; Example I, day 27, 1 x 750 kBq/kg) |
| --- | --- | --- | --- | --- | --- | --- | --- | --- | --- | --- | --- | --- | --- |
| Cc1cc2c(c(=O)n1CC(=O)O)[O][227Th]13[O]c4c(cc(C)n(CC(=O)O)c4=O)C(=O)NCCN(CCCN(CCNC2=O)CCNC(=O)c2cc(C)n(CC(=O)NCc4ccc(C(=O)N[C@@H](Cc5ccc6ccccc6n5)C(=O)NCCCC[C@H](NC(=O)N[C@@H](CCC(=O)O)C(=O)O)C(=O)O)nc4)c(=O)c2[O]1)CCNC(=O)c1cc(C)n(CC(=O)NCc2ccc(C(=O)N[C@@H](Cc4ccc5ccccc5n4)C(=O)NCCCC[C@H](NC(=O)N[C@@H](CCC(=O)O)C(=O)O)C(=O)O)nc2)c(=O)c1[O]3 [34-C dimer-227Th] | 1.25 kBq/mL | 0.46 | 0.38 | 0.46 kBq/mL | 1.36 kBq/mL | 100 fmol/10^6 cells | 79 fmol/10^6 cells | 299 fmol/10^6 cells | 185 fmol/10^6 cells | 0.02 kBq/mL |  |  |  |
| Cc1cc2c(c(=O)n1CC(=O)O)[O][227Th]13[O]c4c(cc(C)n(CC(=O)O)c4=O)C(=O)NCCN(CCCN(CCNC(=O)c4cc(C)n(CC(=O)O)c(=O)c4[O]1)CCNC(=O)c1cc(C)n(CC(=O)NCc4ccc(C(=O)N[C@@H](Cc5ccc6ccccc6n5)C(=O)NCCCC[C@H](NC(=O)N[C@@H](CCC(=O)O)C(=O)O)C(=O)O)nc4)c(=O)c1[O]3)CCNC2=O [34-C monomer] |  |  |  |  |  |  |  |  |  |  | high antiproliferative activity | improved antiproliferative activity |  |
| CC1=CC2=C3[O][227Th-4]45678([O]C9=C(C=C(C)N(CC(=O)O)C9=[O+]4)C(=O)NCCN(CCCN(CCNC(=O)C4=C([O]5)C(=[O+]6)N(CC(=O)O)C(C)=C4)CCNC(=O)C4=C([O]7)C(=[O+]8)N(CC(=O)NC[C@H]5CC[C@H](C(=O)N[C@@H](Cc6ccc7ccccc7n6)C(=O)NCCCC[C@H](NC(=O)N[C@@H](CCC(=O)O)C(=O)O)C(=O)O)CC5)C(C)=C4)CCNC2=O)[O+]=C3N1CC(=O)O [Example 17-C monomer-227Th] | 1.48 kBq/mL |  | 0.36 | 0.5 kBq/mL | 0.86 kBq/mL |  |  |  |  | 0.04 kBq/mL |  |  |  |
| Cc1cc(C(=O)NCCN(CCCN(CCNC(=O)c2cc(C)n(CC(=O)NCc3ccc(C(=O)N[C@@H](Cc4ccc5ccccc5n4)C(=O)NCCCC[C@H](NC(=O)N[C@@H](CCC(=O)O)C(=O)O)C(=O)O)nc3)c(=O)c2[O-])CCNC(=O)c2cc(C)n(CC(=O)NCc3ccc(C(=O)N[C@@H](Cc4ccc5ccccc5n4)C(=O)NCCCC[C@H](NC(=O)N[C@@H](CCC(=O)O)C(=O)O)C(=O)O)nc3)c(=O)c2[O-])CCNC(=O)c2cc(C)n(CC(=O)NCc3ccc(C(=O)N[C@@H](Cc4ccc5ccccc5n4)C(=O)NCCCC[C@H](NC(=O)N[C@@H](CCC(=O)O)C(=O)O)C(=O)O)nc3)c(=O)c2[O-])c([O-])c(=O)n1CC(=O)O.[227Th+4] [34-C trimer 227Th] | 1.1 kBq/mL | 0.41 | 0.56 | 0.28 kBq/mL | 1.25 kBq/mL | 68 fmol/10^6 cells | 49 fmol/10^6 cells | 162 fmol/10^6 cells | 93 fmol/10^6 cells | 0.03 kBq/mL |  |  |  |
| Cc1cc2c(c(=O)n1CC(=O)O)[O][227Th]13[O]c4c(cc(C)n(CC(=O)O)c4=O)C(=O)NCCN(CCCN(CCNC(=O)c4cc(C)n(CC(=O)O)c(=O)c4[O]1)CCNC(=O)c1cc(C)n(CC(=O)NCc4ccc(C(=O)N[C@@H](Cc5ccc6ccccc6n5)C(=O)NCCCC[C@H](NC(=O)N[C@@H](CCC(=O)O)C(=O)O)C(=O)O)nc4)c(=O)c1[O]3)CCNC2=O [34-C monomer-227Th] | 0.99 kBq/mL | 0.51 | 0.37 | 0.15 kBq/mL | 1.28 kBq/mL | 75 fmol/10^6 cells | 147 fmol/10^6 cells | 325 fmol/10^6 cells | 359 fmol/10^6 cells | 0.02 kBq/mL |  |  | 0.37 |
